In US20030013660A1, “Dioxolane analogs for improved inter-cellular delivery” (Shire BioChem Inc., priority 2000, published 2003):

How the values were obtained:
hCNT2 = target: T1, hCNT2 (Homo sapiens, UniProt O43868); assay: Uptake by recombinant transporter in transiently transfected HeLa cells; type: in vitro ADME; conditions: 10 μM, 100 μM dilazep
T1 construct: expressed in transfected cells; host or cells: HeLa cells, transient transfection with pcDNA3-hCNT2
T1 sequence (O43868 1-658): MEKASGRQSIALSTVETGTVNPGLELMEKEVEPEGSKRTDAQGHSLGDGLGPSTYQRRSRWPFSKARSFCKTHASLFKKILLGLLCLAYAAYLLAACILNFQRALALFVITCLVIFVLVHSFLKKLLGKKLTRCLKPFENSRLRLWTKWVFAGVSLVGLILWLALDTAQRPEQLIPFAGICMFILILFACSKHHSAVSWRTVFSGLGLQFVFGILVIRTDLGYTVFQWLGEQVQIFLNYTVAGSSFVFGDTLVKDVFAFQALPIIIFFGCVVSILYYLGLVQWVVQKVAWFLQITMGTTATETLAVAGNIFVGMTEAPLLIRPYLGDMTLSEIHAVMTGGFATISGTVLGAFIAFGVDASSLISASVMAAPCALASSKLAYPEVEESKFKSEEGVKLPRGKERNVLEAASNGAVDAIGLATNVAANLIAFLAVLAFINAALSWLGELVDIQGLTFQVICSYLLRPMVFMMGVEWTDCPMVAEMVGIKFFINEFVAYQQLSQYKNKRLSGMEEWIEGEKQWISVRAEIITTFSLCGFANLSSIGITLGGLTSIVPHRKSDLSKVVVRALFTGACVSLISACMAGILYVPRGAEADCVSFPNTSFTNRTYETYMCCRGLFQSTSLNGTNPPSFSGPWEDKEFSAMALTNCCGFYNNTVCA
Method: (§1) Transport assays were conducted in the presence of the equilibrative transport inhibitor, 100 μM dilazep and either in the presence ( ? ) or absence (▴) of […].sodium, and compared to HeLa cells transiently transfected with the empty vector control plasmic (▾).
(§2) Cancer Res., 56: 4187-4191.
(§3) Expression plasmids encoding recombinant hCNT1 and hCNT2 are prepared using conventional methods. […] The expression vectors are separately introduced into actively proliferating HeLa cells, following conventional methods. See, e.g., Fang et al (1996).
(§4) Recombinant hCNT1 and hCNT2 were separately introduced into HeLa cells by transient transfection of pcDNA3 plasmids containing the coding sequences of the relevant nucleoside transporter protein. […] Uptake of 10 μM [^3H]troxacitabine was not mediated either by hCNT1 or by hCNT2. Troxacitabine uptake by cib-activity (hCNT3) in differentiated HL-60 cells: […]

hCNT1 = target: T2, hCNT1 (Homo sapiens, UniProt O00337); assay: as above; type: in vitro ADME; conditions: 10 μM, 100 μM dilazep
T2 construct: expressed in transfected cells; host or cells: HeLa cells, transient transfection with pcDNA3-hCNT1
T2 sequence (O00337 1-649): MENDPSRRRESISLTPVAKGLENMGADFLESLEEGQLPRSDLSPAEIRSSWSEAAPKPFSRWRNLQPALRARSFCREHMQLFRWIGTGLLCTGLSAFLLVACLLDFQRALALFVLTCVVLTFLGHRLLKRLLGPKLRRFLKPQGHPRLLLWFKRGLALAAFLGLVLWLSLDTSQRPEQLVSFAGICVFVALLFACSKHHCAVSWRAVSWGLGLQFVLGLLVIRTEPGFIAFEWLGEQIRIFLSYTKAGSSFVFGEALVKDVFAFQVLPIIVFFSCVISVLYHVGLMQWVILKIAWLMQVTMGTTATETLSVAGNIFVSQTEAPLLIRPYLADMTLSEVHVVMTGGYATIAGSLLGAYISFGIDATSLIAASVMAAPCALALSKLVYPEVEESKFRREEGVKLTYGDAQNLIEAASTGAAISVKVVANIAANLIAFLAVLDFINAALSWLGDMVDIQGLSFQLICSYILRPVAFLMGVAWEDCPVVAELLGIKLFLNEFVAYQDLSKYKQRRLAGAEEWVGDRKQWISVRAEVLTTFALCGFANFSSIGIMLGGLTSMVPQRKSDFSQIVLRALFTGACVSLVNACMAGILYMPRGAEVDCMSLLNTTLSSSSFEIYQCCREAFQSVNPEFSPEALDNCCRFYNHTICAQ
Method: as §1, §2, §3, §4

hENT2 = target: T3, hENT2 (Homo sapiens, UniProt Q14542)
T3 sequence (Q14542 1-456): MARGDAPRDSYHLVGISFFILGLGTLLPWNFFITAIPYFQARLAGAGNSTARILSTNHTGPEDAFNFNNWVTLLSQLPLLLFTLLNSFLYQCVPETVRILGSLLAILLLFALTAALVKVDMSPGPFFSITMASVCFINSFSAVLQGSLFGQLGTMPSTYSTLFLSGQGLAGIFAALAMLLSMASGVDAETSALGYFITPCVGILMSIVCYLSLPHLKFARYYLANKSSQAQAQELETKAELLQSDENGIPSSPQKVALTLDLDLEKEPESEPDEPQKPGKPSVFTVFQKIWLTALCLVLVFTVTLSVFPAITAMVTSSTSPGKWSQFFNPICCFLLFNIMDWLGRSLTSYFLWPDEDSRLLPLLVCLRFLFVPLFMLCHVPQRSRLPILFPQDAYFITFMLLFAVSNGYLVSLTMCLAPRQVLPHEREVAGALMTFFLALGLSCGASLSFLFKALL
Method: B.Uptake of [^3H]troxacitabine either in the absence ( ? ) or presence of 100 nM NBMPR (▴), 100 μM dilazep (▾), 1 mM non-radioactive troxacitabine (♦) or 20 μM dipyridamole (●), using an expanded scale of 0-15 pmol/10^6 cells. Each data point represents the mean (±standard deviation) of three determinations.
Briefly, for adherent cells, uptake assays are conducted at room temperature under zero-trans conditions in either sodium-containing transport buffer (20 mM Tris/HCl, 3 mM K2HPO4, 1 mM MgCl2.6H2O, 2 mM CaCl2, 5 mM glucose and 130 mM NaCl, pH 7.4, 300±15 mOsm) or sodium-free transport buffer with NaCl replaced by N-methyl-D-glucamine. […] After the plates are drained, the cells are lysed with 5% Triton X-100 and mixed with Ecolite scintillation fluid to measure the cell-associated radioactivity (Beckman LS 6500 scintillation counter; Beckman-Coulter Canada, Mississauga, ON). Uptake at the zero time-point is determined by treating cells for 10 min at 4° C. with transport buffer containing 100 μM dilazep, then adding the radioactive nucleoside for 2 s before reaction termination as described above. […] Uptake at the zero time-point is determined by adding cells to cold transport buffer containing radiolabeled permeant and dilazep, and immediate centrifugation. Cell pellets are lysed and cell-associated radioactivity measured. […]

hENT1 = target: T4, hENT1 (Homo sapiens, UniProt Q99808); assay: Cellular uptake assay of [3H]nucleoside in CEM cells (es activity); type: in vitro ADME; design: endogenous in cells; conditions: compared with uridine
T4 sequence (Q99808 1-456): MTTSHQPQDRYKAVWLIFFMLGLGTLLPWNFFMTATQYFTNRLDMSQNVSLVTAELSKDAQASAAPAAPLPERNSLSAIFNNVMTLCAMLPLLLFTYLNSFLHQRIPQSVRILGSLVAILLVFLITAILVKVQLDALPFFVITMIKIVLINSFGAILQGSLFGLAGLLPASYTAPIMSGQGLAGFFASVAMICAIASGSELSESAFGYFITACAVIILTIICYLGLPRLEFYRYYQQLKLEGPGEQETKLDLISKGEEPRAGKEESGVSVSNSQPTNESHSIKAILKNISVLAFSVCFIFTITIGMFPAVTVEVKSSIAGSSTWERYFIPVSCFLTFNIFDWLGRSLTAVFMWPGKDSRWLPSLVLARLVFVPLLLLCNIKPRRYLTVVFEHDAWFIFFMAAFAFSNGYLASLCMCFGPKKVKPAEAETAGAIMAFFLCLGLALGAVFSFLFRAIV
Method: FIG. 1 Comparative uptake of 30 μM [^3H]-troxacitabine in CEM (Panel A) and CEM/ARAC8C (Panel B) cells. [^3H]-Uridine uptake in either the presence or absence of the hENT1 inhibitor, NBMPR or 5 mM non-radioactive uridine was included for comparison as a control substrate.
as §2
The transport of [^3H]uridine was inhibited in the presence either of the hENT1 inhibitor, NBMPR, or excess non-radioactive uridine.

Structure (SMILES): Nc1ccn([C@@H]2CO[C@H](CO)O2)c(=O)n1 [Troxacitabine, troxacitabine]
- uptake mediated by hCNT2 (hCNT2): not mediated
- uptake mediated by hCNT1 (hCNT1): not mediated
- inhibition of uptake by NBMPR, dilazep, dipyridamole or excess non-radioactive troxacitabine (hENT2): no substantial inhibition
- uptake of [3H]nucleoside over the 6-min time course (hENT1): taken up to a lesser degree
